Source: paper PMC4138103 (PLoS ONE, 2014)
Like-named read-outs stand apart in the source and are kept apart here.

System: Sprague-Dawley rats
Experiment: Organ weights
Assay type: in vivo, Rattus norvegicus
Parameters: key to Dose response, Ovaries weight: D: significant dose response (for results see Table 2 in the text); T: significant trend
Settings: for Emax: Rattus norvegicus; for Organ weight, Adrenals / Organ weight, Brain / Organ weight, Heart / Organ weight, Kidneys / Organ weight, Ovaries / Organ weight, Pituitary / Organ weight, Spleen / Organ weight, Thymus / Organ weight, Thyroid gland / Organ weight, Uterus: group mean
Protocol: At the end of the treatment period (males on study day 28–31, females on study day 28–32) the rats were anesthetized with CO2/O2 (70/30%). Blood samples were drawn from the left ventricle using Venoject needles (Terumo) and Vacuette EDTA and serum blood collection tubes, and the rats were killed by exsanguination. EDTA blood was used for hematology investigations (see below). Serum was separated, divided into aliquots, frozen in liquid nitrogen and stored at −70°C for further analysis (see below). A complete necropsy (macroscopic observations, tissue sampling for molecular biology, biochemistry, histopathology, analytical chemistry and organ weights) was performed on each rat. The weights of the following organs were recorded: adrenals, brain, epididymides, heart, kidneys, liver, lungs, ovaries, pituitary, prostate (ventral), seminal vesicles, spleen, testes, thymus, thyroids (with parathyroids) and uterus. For molecular biology and biochemical analyses samples from brain, liver, kidney, bones, and several other tissues were snap frozen in liquid nitrogen and stored at −80°C for further analysis. […] Tissue samples for histopathology were preserved in 10% neutral buffered formalin except testis and epididymis, which were fixed in Bouin's solution for 24 h after which they were transferred into 70% ethanol.
Data were also analyzed using the BMD method, which is based on dose-response modeling of the full data set using a nested family of exponential and Hill models. The analyses were done on data of males and females combined, using sex as a covariate. […] In that case, different Critical Effect Doses (CEDs) and CEDs at the lowest bound of the confidence interval (CED-L) were generated for each sex. If no difference between sexes is detected, a CED and CED-Ls for the combined data is generated. However, this was also done if the curve fits are close, and separate analyses for males and females were then performed manually. CEDs and CED-Ls were calculated at the predefined Critical Effect Size (CES) of 5% (EFSA standard) or 10%.

[1] = F, CES 5%, model E2, adipose tissue concentration based
[2] = F, CES 5%, model E4, adipose tissue concentration based
[3] = F, CES 10%, model E2, adipose tissue concentration based
[4] = F, CES 10%, model E4, adipose tissue concentration based
[5] = M, CES 5%, model E2, adipose tissue concentration based
[6] = M, CES 5%, model E4, adipose tissue concentration based
[7] = M, CES 10%, model E2, adipose tissue concentration based
[8] = M, CES 10%, model E4, adipose tissue concentration based
[9] = females, total dose 0-1700 mg/kg bw
[10] = females, CES 5%, total dose based
[11] = females, CES 10%, total dose based
[12] = females, adipose tissue concentration based
[13] = females, total dose 10 mg/kg bw
[14] = females, total dose 30 mg/kg bw
[15] = females, total dose 100 mg/kg bw
[16] = females, total dose 300 mg/kg bw
[17] = females, total dose 1000 mg/kg bw

SMILES: Clc1cc(Cl)c(-c2cc(Cl)c(Cl)c(Cl)c2Cl)cc1Cl [PCB 180, 2,2′,3′,4,4′,5,5′-heptachlorobiphenyl]
- CED, Thyroid gland weight [1]: 3010 µg/g lipid
- CED-L, Thyroid gland weight [1]: 1698 µg/g lipid
- CED, Liver weight [2]: 512 µg/g lipid
- CED, Ovaries weight [2]: 201 µg/g lipid
- CED-L, Liver weight [2]: 263 µg/g lipid
- CED-L, Ovaries weight [2]: 31.7 µg/g lipid
- CED, Thyroid gland weight [3]: 6190 µg/g lipid
- CED-L, Thyroid gland weight [3]: 3488 µg/g lipid
- CED, Liver weight [4]: 1090 µg/g lipid
- CED, Ovaries weight [4]: 510 µg/g lipid
- CED-L, Liver weight [4]: 565 µg/g lipid
- CED-L, Ovaries weight [4]: 79.6 µg/g lipid
- CED, Thyroid gland weight [5]: 1030 µg/g lipid
- CED-L, Thyroid gland weight [5]: 720 µg/g lipid
- CED, Liver weight [6]: 42.3 µg/g lipid
- CED-L, Liver weight [6]: 19.8 µg/g lipid
- CED, Thyroid gland weight [7]: 2010 µg/g lipid
- CED-L, Thyroid gland weight [7]: 1407 µg/g lipid
- CED, Liver weight [8]: 88.4 µg/g lipid
- CED-L, Liver weight [8]: 41.3 µg/g lipid
- Emax (F, model E2, controls vs high dose according to the fitted model, read-out: Maximum response, Relative thyroid gland weight): -16.5%
- Emax (F, model E2, controls vs high dose according to the fitted model, read-out: Maximum response, Thyroid gland weight): -17.6%
- Emax (F, model E4, controls vs high dose according to the fitted model, read-out: Maximum response, Liver weight): 43.1%
- Emax (F, model E4, controls vs high dose according to the fitted model, read-out: Maximum response, Ovaries weight): 17%
- Emax (F, model E4, controls vs high dose according to the fitted model, read-out: Maximum response, Relative liver weight): 44.8%
- Emax (females, controls vs high dose, fitted model, read-out: Liver weight, Maximum response): 45%
- Emax (females, controls vs high dose, fitted model, read-out: Ovaries weight, Maximum response): 17%
- Emax (females, controls vs high dose, fitted model, read-out: Relative liver weight, Maximum response): 46.2%
- Emax (females, controls vs high dose, fitted model, read-out: Relative thyroid gland weight, Maximum response): -17%
- Emax (females, controls vs high dose, fitted model, read-out: Thyroid gland weight, Maximum response): -17.9%
- Emax (males, controls vs high dose, fitted model, read-out: Liver weight, Maximum response): 66%
- Emax (males, controls vs high dose, fitted model, read-out: Relative liver weight, Maximum response): 67%
- Emax (males, controls vs high dose, fitted model, read-out: Relative thymus weight, Maximum response): 17.1%
- Emax (males, controls vs high dose, fitted model, read-out: Relative thyroid gland weight, Maximum response): 45.2%
- Emax (F, model E5, controls vs high dose according to the fitted model, read-out: Maximum response, Relative ovaries weight): 16%
- Emax (model E2, controls vs high dose according to the fitted model, read-out: Maximum response, Relative thymus weight): 17.6%
- Emax (model E2, controls vs high dose according to the fitted model, read-out: Maximum response, Relative thyroid gland weight): 45.7%
- Emax (model E2, controls vs high dose according to the fitted model, read-out: Maximum response, Thyroid gland weight): 41.9%
- Emax (model E4, controls vs high dose according to the fitted model, read-out: Maximum response, Liver weight): 65%
- Emax (model E4, controls vs high dose according to the fitted model, read-out: Maximum response, Relative liver weight): 66%
- Thyroid weight, max. decrease (females): 18%
- Dose response, Ovaries weight [9]: D
- Dose response, Thyroid gland weight [9]: D, T
- Liver weight, CED [10]: 225 mg/kg bw
- Liver weight, CED-L [10]: 188 mg/kg bw
- Ovaries weight, CED [10]: 46.8 mg/kg bw
- Ovaries weight, CED-L [10]: 6.15 mg/kg bw
- Thyroid gland weight, CED [10]: 443 mg/kg bw
- Thyroid gland weight, CED-L [10]: 257 mg/kg bw
- Liver weight, CED [11]: 439 mg/kg bw
- Liver weight, CED-L [11]: 368 mg/kg bw
- Ovaries weight, CED [11]: 120 mg/kg bw
- Ovaries weight, CED-L [11]: 15.4 mg/kg bw
- Thyroid gland weight, CED [11]: 910 mg/kg bw
- Thyroid gland weight, CED-L [11]: 528 mg/kg bw
- Liver weight, CED [12]: 512 µg/g lipid
- Ovary weight, CED [12]: 201 µg/g lipid
- Thyroid weight, CED [12]: 3010 µg/g lipid
- Liver weight, Maximum response (females, controls vs high dose, fitted model): 44.6%
- Organ weight, Adrenals (females, total dose 3 mg/kg bw): 0.0648 g
- Organ weight, Brain (females, total dose 3 mg/kg bw): 1.60 g
- Organ weight, Heart (females, total dose 3 mg/kg bw): 0.958 g
- Organ weight, Kidneys (females, total dose 3 mg/kg bw): 1.43 g
- Organ weight, Ovaries (females, total dose 3 mg/kg bw): 0.093 g
- Organ weight, Pituitary (females, total dose 3 mg/kg bw): 0.0112 g
- Organ weight, Spleen (females, total dose 3 mg/kg bw): 0.728 g
- Organ weight, Thymus (females, total dose 3 mg/kg bw): 0.528 g
- Organ weight, Thyroid gland (females, total dose 3 mg/kg bw): 0.0202 g
- Organ weight, Uterus (females, total dose 3 mg/kg bw): 0.372 g
- Organ weight, Adrenals [13]: 0.0640 g
- Organ weight, Brain [13]: 1.59 g
- Organ weight, Heart [13]: 0.884 g
- Organ weight, Kidneys [13]: 1.46 g
- Organ weight, Ovaries [13]: 0.086 g
- Organ weight, Pituitary [13]: 0.0124 g
- Organ weight, Spleen [13]: 0.722 g
- Organ weight, Thymus [13]: 0.470 g
- Organ weight, Thyroid gland [13]: 0.0188 g
- Organ weight, Uterus [13]: 0.492 g
- Organ weight, Adrenals [14]: 0.0618 g
- Organ weight, Brain [14]: 1.61 g
- Organ weight, Heart [14]: 0.870 g
- Organ weight, Kidneys [14]: 1.45 g
- Organ weight, Ovaries [14]: 0.096 g
- Organ weight, Pituitary [14]: 0.0124 g
- Organ weight, Spleen [14]: 0.696 g
- Organ weight, Thymus [14]: 0.494 g
- Organ weight, Thyroid gland [14]: 0.0169 g
- Organ weight, Uterus [14]: 0.353 g
- Organ weight, Adrenals [15]: 0.0612 g
- Organ weight, Brain [15]: 1.62 g
- Organ weight, Heart [15]: 0.896 g
- Organ weight, Kidneys [15]: 1.46 g
- Organ weight, Ovaries [15]: 0.091 g
- Organ weight, Pituitary [15]: 0.0122 g
- Organ weight, Spleen [15]: 0.676 g
- Organ weight, Thymus [15]: 0.480 g
- Organ weight, Thyroid gland [15]: 0.0213 g
- Organ weight, Uterus [15]: 0.368 g
- Organ weight, Adrenals [16]: 0.0686 g
- Organ weight, Brain [16]: 1.60 g
- Organ weight, Heart [16]: 0.908 g
- Organ weight, Kidneys [16]: 1.45 g
- Organ weight, Ovaries [16]: 0.110 g
- Organ weight, Pituitary [16]: 0.0121 g
- Organ weight, Spleen [16]: 0.650 g
- Organ weight, Thymus [16]: 0.498 g
- Organ weight, Thyroid gland [16]: 0.0176 g
- Organ weight, Uterus [16]: 0.352 g
- Organ weight, Adrenals [17]: 0.0641 g
- Organ weight, Brain [17]: 1.59 g
- Organ weight, Heart [17]: 0.896 g
- Organ weight, Kidneys [17]: 1.49 g
- Organ weight, Ovaries [17]: 0.103 g
- Organ weight, Pituitary [17]: 0.0112 g
